Row | SMILES | melting point
1 | O=S(=O)(O)CCCNc1cccc(O)c1 | > 250 °C
2 | O=C(c1ccccc1Cl)c1cc(Cl)ccc1-n1ccnc1 | 146 to 148 °C
3 | Nc1cc(C=O)nc(-c2ccc(C(F)(F)F)nc2)c1F | 166 to 167 °C
4 | CC(=O)OCc1cc(=O)c(Oc2ccc(F)cc2F)c(-c2ccc(S(C)(=O)=O)cc2)o1 | 175 °C
5 | COC(=O)c1ccc(=O)n(Cc2ccc(-c3ccccc3)cc2)c1 | 130 to 133 °C
6 | COC(=O)c1ccccc1-c1ccc(CN2C(=O)c3ccccc3C2=O)cc1 | 148 to 150 °C
7 | Cc1cc(C(Cc2ccc(CCCc3nc(-c4ccccc4)oc3C)cc2)C(=O)O)no1 (configuration not stated) | 75 to 80 °C
8 | Cc1cc(O)ccc1N=Cc1ccccc1O | 95 to 97 °C
9 | CCCCc1[nH]c2ccc(OC)cc2c1C(=O)c1ccc(OC)cc1 | 170 °C
10 | O=CNc1ccccc1-c1cc2ccccc2[nH]1 | 147 to 149 °C
11 | CCOC(=O)c1cnc2ccc(C#N)cc2c1NCc1ccc(OC)c(Cl)c1 | 161 to 162 °C
12 | Cc1ccccc1C=C(C#N)C=O | 81.5 °C
13 | O=S(=O)(Nc1cccc(OCc2ccc3ccccc3n2)c1)c1ccc(Cl)cc1 | 157 to 159 °C
14 | CCOc1ccc(-c2nc(OC)ccc2N2CCN(c3ccc(OC)cc3)CC2)cc1 | 125 to 128 °C
15 | C[C@@H](n1cnc2c(Cl)cccc2c1=O)[C@](O)(Cn1cncn1)c1ccc(F)cc1F | 110 to 113 °C
16 | O=Cc1ccc(-c2ccc(-c3cn([C@H]4CN5CCC4CC5)nn3)cc2)s1 | 228 °C
17 | O=C(c1ccc(Cl)cc1)c1ccc(Cl)[nH]1 | 210 to 211 °C
18 | Cc1ccc2c(c1)cc(C(=O)OCc1ccccc1)n2CC(=O)OC(C)(C)C | 80 to 82 °C
19 | CCOC(=O)Cn1c(=S)c2ccccc2n(Cc2ccc(Cl)c(Cl)c2)c1=O | 128 to 129 °C
20 | CC[C@@H](c1ccccc1)N(Cc1ccc(C(N)=O)cc1)S(=O)(=O)c1ccc(Cl)cc1 | 158 to 159 °C
21 | CC1(C)OC(=S)Nc2ccc(-c3cc(Cl)cc(C#N)c3)cc21 | 249 to 251 °C
22 | CC(C)c1cccc(C(C)C)c1OS(=O)(=O)C(OC(N)=O)c1c(C(C)C)cccc1C(C)C (configuration not stated) | 95 to 101 °C
23 | Oc1ccc2nc(SCCC=C(F)F)oc2c1 | 73.6 to 75.4 °C
24 | CCCN(CCC)C(N)=C(C#N)C#N | 100 to 105 °C

Row | SMILES | melting point
25 | CC(C)(C)OC(=O)Nc1sc(-c2cncc(F)c2)nc1I | 148 to 149 °C
26 | OC(CN1CCNC1=S)c1ccccn1 (configuration not stated) | 120 °C
27 | CCCNC(=O)Cc1cnc2cccc(C)n2c1=O | 96 to 98 °C
28 | COc1ccc2[nH]c(S(=O)Cc3ncc(C)c(N4CCCC4)c3Cl)nc2c1 (configuration not stated) | 145 to 146 °C
29 | CS(=O)(=O)N(Cc1ccccc1)c1ccc(C(=O)CBr)cc1 | 101 to 103 °C
30 | Cc1nc(N)nc(N[C@@H]2CCc3ccccc32)n1 | 94 to 96 °C
31 | CC(Cc1c[nH]c2ccccc12)C1CCNCC1 (configuration not stated) | 150 °C
32 | Cc1ccc(N(C)S(=O)(=O)c2cccs2)c2[nH]c(C3=NCC(CC(N)=O)S3)cc12 (configuration not stated) | 120 to 121 °C
33 | COc1cc2c(cc1OC)CN(CC(O)c1ccc([N+](=O)[O-])cc1)CC2 (configuration not stated) | 130 °C
34 | O=C1c2ccc(Cl)cc2CC1S(=O)(=O)c1ccccc1 (configuration not stated) | 133 °C
35 | Cc1ncc([N+](=O)[O-])n1CCN(CCCCCCCCN(CCn1c([N+](=O)[O-])cnc1C)CCn1c([N+](=O)[O-])cnc1C)CCn1c([N+](=O)[O-])cnc1C | 157 to 158 °C
36 | CCOC(=O)c1cc2cc(OCCOC)cc(NS(=O)(=O)c3cccs3)c2[nH]1 | 106 to 107 °C
37 | C=CCc1cc(C(=O)OC)ccc1OCCCCCOc1ccc2c(=O)cc(C(=O)OC)oc2c1CCC | 87 to 88 °C
38 | COCCOC12CC(CO)CN(C)C1Cc1c[nH]c3cccc2c13 (configuration not stated) | 188 to 193 °C
39 | OCCCc1ncnn1C(c1ccccc1)(c1ccccc1)c1ccccc1 | 150 to 152 °C
40 | O=C1c2ccccc2CCn2cccc21 | 54 to 55 °C
41 | CC(C)CC(COc1ccc(-c2ccc(C#N)cc2)cc1)N(O)C=O (configuration not stated) | 112 to 113 °C
42 | Cc1cc(C(=O)O)ccc1OCCNC(=O)C1Cc2ccccc2N1S(=O)(=O)c1ccc(-c2ccc(F)cc2)cc1 (configuration not stated) | 112 to 118 °C
43 | COc1cc2c(cc1Nc1ncc(Cl)c(Nc3ccccc3-n3cccn3)n1)CCN(CC(=O)N(C)C)CC2 | 66 to 67 °C
44 | Oc1ncnc2c1cnn2C1OC(COCc2ccccc2)C(OCc2ccccc2)C1OCc1ccccc1 (configuration not stated) | 204 °C
45 | Cc1cccc(N2CCN(CCc3ccc(-c4cccc(N)n4)cc3)CC2)c1 | 158 to 160 °C
46 | COc1ccc(C=NO)c(Cl)c1O | 174 to 176 °C
47 | FC(F)C(F)(F)Oc1cccc(Nc2nccc(-c3ccc(Cl)cc3)n2)c1 | 133 to 135 °C

More lines, now with the values ahead:

Row | melting point | SMILES
48 | 162 to 163 °C | CC(=O)Oc1ccc2c(c1)Oc1ccccc1C2=C1C2CC3CC(C2)CC1C3
49 | 203 to 205 °C | CCOCCOc1ccc(-c2ccc3c(c2)C=C(C(=O)Nc2ccc(CN(C)C4CCOCC4)cc2)CCS3(=O)=O)cc1Cl
50 | 163 to 164 °C | O=C1C2=NCC3(CCCC3)CN2c2ccc(S(=O)(=O)N3CCCC3CN3CCOCC3)cc21 (configuration not stated)
51 | 138 to 140 °C | CC(C)(C)[C@@H](NS(=O)(=O)c1ccc(Oc2ccc(Cl)cc2)cc1)C(=O)O
52 | 210 to 215 °C | COc1nc(Cl)ccc1C(=O)O
53 | 141 to 143 °C | CC(C)(C)OC(=O)NCCNC(=O)c1ccc(Cl)cc1
54 | 112 °C | CCCCCCCCCC(=O)OCc1cccn2c(=O)c(CCN3CCC(N4Cc5ccc(F)cc5O4)CC3)c(C)nc12
55 | 152 to 153 °C | COc1ccc(Cl)cc1C(=O)NCc1ccc(CCC(=O)O)cc1
56 | 181 to 184 °C | CCCn1c(=O)n(CC(C)=O)c(=O)c2[nH]c(C34CC5CC(CC3C5)C4)nc21
57 | 138 to 140 °C | CC12C=CC(O)CC1=CCC1C2CCC2(C)C1CCC21OCCO1 (configuration not stated)
58 | 166 to 174 °C | CC(=O)c1cccc(OC2SCC(O)C(O)C2O)c1 (configuration not stated)
59 | 246 to 247 °C | O=C1CCC2=C1C(c1ccc(Br)s1)C1=C(CCS1)N2 (configuration not stated)
60 | 144 to 146 °C | O=C1c2ccccc2CN1C1CCNCC1
61 | 158 to 160 °C | O=C(O)C12CCCC(C1)C1CCC2C1 (configuration not stated)
62 | 88 to 89 °C | Cc1oc(-c2ccccc2)nc1C(=O)CBr
63 | 150 to 151 °C | O=C(O)CCc1cnoc1-c1ccc2c(c1)OCO2
64 | 95 to 100 °C | O=CCOc1ccc(CCC(=O)O)cc1
65 | 166 to 168 °C | Cc1[nH]c(=S)n(Nc2cccc(Cl)c2)c1C(=O)O
66 | 275 to 283 °C | NC(=O)c1sc2nccc(N3CCCC3)c2c1N
67 | 65 to 66 °C | O=CN1CCc2ccccc2CC1
68 | 126 to 128 °C | CCCCON=C(C(=O)OCC)c1csc(N)n1
69 | 47.5 to 48.5 °C | O=C(Cc1ccccc1)N1CC2COCC2C1 (configuration not stated)
70 | 108 to 111 °C | COc1cc(C(=O)N2CCC(CCN3CCC(C(=O)c4nc5ccccc5[nH]4)CC3)(c3ccccc3)C2)cc(OC)c1OC (configuration not stated)
71 | 134 to 135 °C | CCOc1ccc(CC(=O)O)cc1OCCCc1cn(-c2ccc(C(F)(F)F)cn2)nc1C1CCCCC1
72 | 266 to 268 °C | O=C(Nc1cccc(Cl)c1)N1CCN(C(=O)c2ccc(Nc3ccnc4cc(C(F)(F)F)ccc34)cc2)CC1

From a melting point compilation (Tetko et al.; mined from patent text by program, amines drawn as free bases though some values may be those of a salt)
